These results are taken from patent US9110082B2, “Methods for the identification and treatment of patients sensitive to anti IGF-1R inhibition therapy” (MERCK SHARP & DOHME CORP., priority 2009, dated 2015).

The test system of test [1] is NSCLC cell lines expressing high levels of IGF-1R (NCI-H2122, A549, NCI-H460). Briefly: Xenograft growth assessment, NSCLC models with high IGF-1R. It is filed as in vivo, nu/nu mice. The settings on record: NCI-H2122, A549, NCI-H460 xenografts; as compared to erlotinib. On the procedure: (§1) When tumors reached a size of ˜300 mm3 (Length*Width*Width*0.5), mice were randomized into treatment groups. […] Tumor weight was determined at termination. […] Mice were sacrificed 24 hr after the final dose.

Another test has as its system Colo699 cell line. Nature of the test: Anchorage independent growth (soft agar) assay, Colo699. The note with it: LKB1-high cell line; IGF-1 over-expression. The format is cell-based, human. On the procedure:
(§2) All NSCLC cell lines were obtained from ATCC and maintained in 10% fetal bovine serum, FBS (Hyclone) containing media (DMEM or RPMI; Invitrogen Inc) supplemented with pen-strep (Invitrogen) at 37° C. according to the instructions from ATCC.
Soft agar assays were conducted in 96 well glass bottom plates (MATRICAL). Cells were seeded at a concentration of 3,000-9,000 cells per WELL in 100 μl RPMI 1640 (INVITROGEN) supplemented with 14% FBS and 0.3% (w/v) […] Agarose (Lonza Rockland, Inc) on top of a bottom layer of consisting of the same culture media supplemented with 0.8% agarose. Compounds were added in 100μl of culture media supplemented after agarose had solidified. Cells were incubated for 7-14 days before staining overnight with LAVA CELL(Active Motif). Colonies were quantified using an ISOCYTE laser scanning cytometer.

In test [2] the test system is xenograft models with low levels of IGF-1R expression (SKMES & NCI-H520). Nature of the test: Xenograft growth assessment, NSCLC models with low IGF-1R. The format is in vivo, nu/nu mice. The note with it: SKMES & NCI-H520 xenografts. On the procedure: as §1
In another test the test system is NSCLC cell lines. Briefly: Anchorage independent growth (soft agar colony formation) assay in a panel of NSCLC cell lines. The format is cell-based, human. On the procedure: as §2
Soft agar assays were conducted in 96 well glass bottom plates (MATRICAL). Cells were seeded at a concentration of 3,000-9,000 cells per WELL in 100 μl RPMI 1640 (INVITROGEN) supplemented with 14% FBS and 0.3% (w/v) […] Agarose (Lonza Rockland, Inc) on top of a bottom layer of consisting of the same culture media supplemented with 0.8% agarose. […] Cells were incubated for 7-14 days before staining overnight with LAVA CELL(Active Motif). Colonies were quantified using an ISOCYTE laser scanning cytometer.

The next test concerns 22 NSCLC cell lines. The note with it: growth inhibition assay; cited from earlier work.

Turning to “MK-0646: humanized antibody characterized as binding IGF-1R as well as the IR/IGF-1 hybrid receptor; described in U.S. Pat. No. 7,241,444”, the results for the xenograft sensitivity entry in test [1] and in test [2] were “significant sensitivity” and “did not show sensitivity”, respectively. Also, the “sensitivity of Colo699 cell line” value in the test on Colo699 cell line is “very sensitive”. Further, the “sensitivity (anchorage independent growth inhibition) of NSCLC cell lines expressing high levels of IGF-1R” value in the test with NSCLC cell lines (26 NSCLC cell lines, MK-0646 10 ug/ml, erlotinib 1 uM, IGF-1R high cell lines) is recorded as “more sensitive”. For the same substance, in the test with NSCLC cell lines (IGF-1R and LKB1 protein by RPPA), the “sensitivity in IGF-1R high cell lines expressing low levels of LKB1” value is recorded as “enriched”. Further, the “MK-0646 sensitivity in LKB1-low cell lines” value in the test on NSCLC cell lines (LKB1 protein not detectable by western blot (LKB1-low; n=11)) is on record as “significantly enriched”.

Consider “R1507: fully human IgG1 monoclonal antibody directed against the extracellular portion of the human IGF-1R”, for which the “sensitivity of NSCLC cell lines to R1507” value with 22 NSCLC cell lines was “none of the lines displayed “high sensitivity””.
